Series [1] is described as follows: Microsomal stability, rat. The series is classed as in vitro ADME. The following applies: rat microsomes. Here is the method: Microsomal stability for Compound AA and Compound BB was investigated. The following table indicates the percent of Compound AA and Compound BB remaining after 60 minutes.
Series [2] is described as follows: Plasma protein binding assay, human. Format: in vitro ADME. The following applies: read-out: Plasma Protein binding (% Bound) Plasma human (converted). On the procedure:
Bound drug concentration in the brain was also investigated, and plasma protein binding assays were conducted. The following table (% bound) indicates results for Compound AA and Compound BB.

In another series the target is NR2A (Homo sapiens, UniProt Q12879). The series can be described thus: Potentiation of [3H]MK-801 binding, wild-type NMDAR2A. The arrangement: species or system rat.
Another series has as its target NR2B (Homo sapiens, UniProt Q13224). The series can be described thus: Potentiation of [3H]MK-801 binding, wild-type NMDAR2B. Also noted: species or system rat. Here is the method: (§1) Assays were conducted as described by Moskal et al., “GLYX-13: a monoclonal antibody-derived peptide that acts as an N-methyl-D-aspartate receptor modulator,” Neuropharmacology, 49, 1077-87, 2005. The potentiation of [^3H]MK-801 binding (5 nM; 22.5 Ci/mmol) to well washed rat cortical membranes (200 μg) was measured under non-equilibrium conditions (15 min @ 25° C.) in the presence of increasing concentrations of Compound AA or Compound BB.
(§2) FIG. 2A depicts the potentiation of [^3H]MK-801 binding for wild-type NMDAR2 subtypes in the presence of Compound AA. FIG. 2B depicts the potentiation of [^3H]MK-801 binding for wild-type NMDAR2 subtypes in the presence of Compound BB. The following table depicts the results (P means potency and A means activity): […]

The next series concerns the target NR2C (Homo sapiens, UniProt Q14957). Nature of the series: Potentiation of [3H]MK-801 binding, wild-type NMDAR2C. The arrangement: species or system rat. On the procedure: as §1, §2
A further series deals with SD rats. The series can be described thus: Novelty-induced hypophagia (NIH) test. The series is classed as in vivo, rat. The note with it: 1-100 μg/kg PO, 1 h before test. The source says: This Example relates to the assessment of the anxiolytic effect of treatment in the stress-induced anxiety model, novelty induced hypophagia. This assay is also sensitive to the rapid acting antidepressants ketamine and GLYX-13 (Li et al., “mTOR-dependent synapse formation underlies the rapid antidepressant effects of NMDA antagonists,” Science 329:959-964, 2010; and Burgdorf et al., 2013). See also Bodnoff et al., “A comparison of the effects of diazepam versus several typical and atypical anti-depressant drugs in an animal model of anxiety,” Psychopharmacology, 97:277-279, 1989.
Testing was conducted as described by (Burgdorf et al., 2013). […] Animals were food deprived overnight before testing, and lab chow was placed in the center chamber of an open field (40×40×20 cm) for 10 min under dim red lighting. Between testing each animal, feces and urine were removed from the apparatus. After NIH testing, the latency to eat in the animal's home cage was determined as a control to ensure the effect on eating is specific to the novel environment. Animals were videotaped, and latency (sec) for the animal to take the first bite of food was manually scored offline.
A single point per dose group that was 2 or more standard deviations from the mean was considered an outlier and was excluded from the data analysis. […]

The test system of a further series is Sprague Dawley rats. The series can be described thus: Bennett model of mechanical analgesia (paw withdrawal threshold). The series is classed as in vivo, rat. The note with it: 0.1-10 mg/kg PO; tested 1 h, 24 hrs and 1 week post-dosing. On the procedure: Bennett G J, Xie Y K, “A peripheral mononeuropathy in rat that produces disorders of pain sensation like those seen in man,” Pain 33:87-107, 1988. […] Vehicle animals receive the surgery and then receive vehicle rather than test compound. Animals were tested 1 hr, 24 h and 1 wk post-test compound or vehicle administration.
Male 2-3 month old Sprague Dawley rats were used. Harlan was the supplier for all studies. Rats were housed in Lucite cages with aspen wood chip bedding, maintained on a 12:12 light:dark cycle (lights on at 5 AM), and given ad libitum access to Purina lab chow (USA) and tap water throughout the study.
Rats were anesthetized using inhaled isoflurane (2.5%). Spared nerve injury surgery was performed as previously described (Bennett and Xie, 1988). An incision (˜1.5 cm in length) was made with a scalpel blade dorsally through skin on the right hindlimb, parallel and posterior to femur. Using a small pointed hemostat, the biceps femoris and gluteus superficialis muscles were separated. Using curved blunt forceps, the common sciatic nerve was isolated and exposed. For the mechanical analgesia studies, the whole sciatic nerve was ligated. Using hemostats/forceps and chromic gut (5-0), the nerve was loosely ligated with a square knot; 3 ligatures, 1 mm apart were placed on the nerve. […]

[3] abbreviates: potentiation of [3H]MK-801 binding.

Each structure is given as a SMILES string.

Sequence of NR2B (Q13224 27-1484, species assumed, other chains not shown): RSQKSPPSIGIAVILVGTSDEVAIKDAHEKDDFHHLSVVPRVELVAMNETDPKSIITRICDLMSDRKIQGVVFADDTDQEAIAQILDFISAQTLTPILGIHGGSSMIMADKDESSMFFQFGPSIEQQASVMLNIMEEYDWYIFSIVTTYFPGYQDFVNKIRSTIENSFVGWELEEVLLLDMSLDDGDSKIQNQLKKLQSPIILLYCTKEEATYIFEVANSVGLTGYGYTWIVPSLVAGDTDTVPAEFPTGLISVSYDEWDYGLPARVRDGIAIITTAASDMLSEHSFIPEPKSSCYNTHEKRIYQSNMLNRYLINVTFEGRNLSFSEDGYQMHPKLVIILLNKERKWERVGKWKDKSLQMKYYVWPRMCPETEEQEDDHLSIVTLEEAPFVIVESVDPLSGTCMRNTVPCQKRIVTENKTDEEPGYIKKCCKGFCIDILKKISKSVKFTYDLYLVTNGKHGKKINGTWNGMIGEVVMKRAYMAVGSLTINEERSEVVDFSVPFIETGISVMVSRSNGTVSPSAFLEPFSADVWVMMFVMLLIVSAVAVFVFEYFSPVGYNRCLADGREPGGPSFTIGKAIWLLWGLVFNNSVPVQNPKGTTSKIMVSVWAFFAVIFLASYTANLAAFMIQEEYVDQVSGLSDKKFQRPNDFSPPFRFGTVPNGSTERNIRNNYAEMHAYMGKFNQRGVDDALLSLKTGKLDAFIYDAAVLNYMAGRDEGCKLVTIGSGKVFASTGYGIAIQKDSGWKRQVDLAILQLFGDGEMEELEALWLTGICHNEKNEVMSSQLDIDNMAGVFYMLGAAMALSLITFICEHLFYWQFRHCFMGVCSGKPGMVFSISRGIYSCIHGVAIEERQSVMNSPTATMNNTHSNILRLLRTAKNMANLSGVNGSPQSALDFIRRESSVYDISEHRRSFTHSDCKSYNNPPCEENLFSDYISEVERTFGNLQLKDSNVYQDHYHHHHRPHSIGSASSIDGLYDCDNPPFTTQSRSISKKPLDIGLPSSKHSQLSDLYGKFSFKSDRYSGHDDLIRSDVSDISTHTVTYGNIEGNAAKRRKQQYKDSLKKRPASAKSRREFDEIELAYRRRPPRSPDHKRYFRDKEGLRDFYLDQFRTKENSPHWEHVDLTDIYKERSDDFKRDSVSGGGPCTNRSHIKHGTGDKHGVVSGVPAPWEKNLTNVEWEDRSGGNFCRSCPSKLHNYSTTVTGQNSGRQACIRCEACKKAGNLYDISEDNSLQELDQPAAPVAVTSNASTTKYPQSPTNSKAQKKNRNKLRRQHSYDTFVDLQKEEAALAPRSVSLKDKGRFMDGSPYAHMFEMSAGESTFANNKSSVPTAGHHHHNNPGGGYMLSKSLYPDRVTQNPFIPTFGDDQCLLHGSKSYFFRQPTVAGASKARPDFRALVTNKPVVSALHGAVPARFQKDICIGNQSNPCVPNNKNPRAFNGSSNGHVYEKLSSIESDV
Sequence of NR2A (Q12879 23-1464, species assumed, other chains not shown): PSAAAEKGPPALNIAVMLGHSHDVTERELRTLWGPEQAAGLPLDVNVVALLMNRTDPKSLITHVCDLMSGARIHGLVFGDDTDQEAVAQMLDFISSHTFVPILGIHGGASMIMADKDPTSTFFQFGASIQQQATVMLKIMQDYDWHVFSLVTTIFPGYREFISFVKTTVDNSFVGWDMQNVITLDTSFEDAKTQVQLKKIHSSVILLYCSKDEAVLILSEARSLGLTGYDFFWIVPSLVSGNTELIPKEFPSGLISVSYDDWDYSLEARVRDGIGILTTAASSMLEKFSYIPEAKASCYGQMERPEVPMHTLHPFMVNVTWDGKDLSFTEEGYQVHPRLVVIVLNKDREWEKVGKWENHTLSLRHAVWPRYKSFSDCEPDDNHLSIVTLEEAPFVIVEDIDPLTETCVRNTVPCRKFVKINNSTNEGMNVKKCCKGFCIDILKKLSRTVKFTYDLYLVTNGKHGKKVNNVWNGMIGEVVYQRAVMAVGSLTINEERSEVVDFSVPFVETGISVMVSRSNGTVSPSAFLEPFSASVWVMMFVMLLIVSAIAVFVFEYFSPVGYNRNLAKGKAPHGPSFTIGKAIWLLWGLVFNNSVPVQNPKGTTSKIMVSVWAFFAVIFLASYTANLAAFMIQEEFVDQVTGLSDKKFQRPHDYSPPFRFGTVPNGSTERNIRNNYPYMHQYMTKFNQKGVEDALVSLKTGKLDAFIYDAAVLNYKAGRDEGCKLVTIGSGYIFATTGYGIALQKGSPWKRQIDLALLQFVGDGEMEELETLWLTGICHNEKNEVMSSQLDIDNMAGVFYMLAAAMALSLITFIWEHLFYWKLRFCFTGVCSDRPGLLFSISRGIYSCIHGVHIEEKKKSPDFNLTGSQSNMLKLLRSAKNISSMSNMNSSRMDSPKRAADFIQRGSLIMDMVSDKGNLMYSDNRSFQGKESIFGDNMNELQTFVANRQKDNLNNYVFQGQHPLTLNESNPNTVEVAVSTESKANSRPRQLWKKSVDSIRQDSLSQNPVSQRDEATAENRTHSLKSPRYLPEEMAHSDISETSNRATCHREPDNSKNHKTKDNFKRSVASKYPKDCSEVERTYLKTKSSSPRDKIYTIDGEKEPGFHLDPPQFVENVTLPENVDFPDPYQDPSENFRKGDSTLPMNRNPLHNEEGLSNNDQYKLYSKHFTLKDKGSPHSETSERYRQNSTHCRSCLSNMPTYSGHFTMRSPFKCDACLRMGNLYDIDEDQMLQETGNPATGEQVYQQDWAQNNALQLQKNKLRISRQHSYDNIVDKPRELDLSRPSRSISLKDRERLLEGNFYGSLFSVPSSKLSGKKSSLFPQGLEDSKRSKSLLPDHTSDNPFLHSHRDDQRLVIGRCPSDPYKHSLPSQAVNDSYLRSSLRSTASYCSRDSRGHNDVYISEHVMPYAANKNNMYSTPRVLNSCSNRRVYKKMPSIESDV
Sequence of NR2C (Q14957 20-1233, species assumed, other chains not shown): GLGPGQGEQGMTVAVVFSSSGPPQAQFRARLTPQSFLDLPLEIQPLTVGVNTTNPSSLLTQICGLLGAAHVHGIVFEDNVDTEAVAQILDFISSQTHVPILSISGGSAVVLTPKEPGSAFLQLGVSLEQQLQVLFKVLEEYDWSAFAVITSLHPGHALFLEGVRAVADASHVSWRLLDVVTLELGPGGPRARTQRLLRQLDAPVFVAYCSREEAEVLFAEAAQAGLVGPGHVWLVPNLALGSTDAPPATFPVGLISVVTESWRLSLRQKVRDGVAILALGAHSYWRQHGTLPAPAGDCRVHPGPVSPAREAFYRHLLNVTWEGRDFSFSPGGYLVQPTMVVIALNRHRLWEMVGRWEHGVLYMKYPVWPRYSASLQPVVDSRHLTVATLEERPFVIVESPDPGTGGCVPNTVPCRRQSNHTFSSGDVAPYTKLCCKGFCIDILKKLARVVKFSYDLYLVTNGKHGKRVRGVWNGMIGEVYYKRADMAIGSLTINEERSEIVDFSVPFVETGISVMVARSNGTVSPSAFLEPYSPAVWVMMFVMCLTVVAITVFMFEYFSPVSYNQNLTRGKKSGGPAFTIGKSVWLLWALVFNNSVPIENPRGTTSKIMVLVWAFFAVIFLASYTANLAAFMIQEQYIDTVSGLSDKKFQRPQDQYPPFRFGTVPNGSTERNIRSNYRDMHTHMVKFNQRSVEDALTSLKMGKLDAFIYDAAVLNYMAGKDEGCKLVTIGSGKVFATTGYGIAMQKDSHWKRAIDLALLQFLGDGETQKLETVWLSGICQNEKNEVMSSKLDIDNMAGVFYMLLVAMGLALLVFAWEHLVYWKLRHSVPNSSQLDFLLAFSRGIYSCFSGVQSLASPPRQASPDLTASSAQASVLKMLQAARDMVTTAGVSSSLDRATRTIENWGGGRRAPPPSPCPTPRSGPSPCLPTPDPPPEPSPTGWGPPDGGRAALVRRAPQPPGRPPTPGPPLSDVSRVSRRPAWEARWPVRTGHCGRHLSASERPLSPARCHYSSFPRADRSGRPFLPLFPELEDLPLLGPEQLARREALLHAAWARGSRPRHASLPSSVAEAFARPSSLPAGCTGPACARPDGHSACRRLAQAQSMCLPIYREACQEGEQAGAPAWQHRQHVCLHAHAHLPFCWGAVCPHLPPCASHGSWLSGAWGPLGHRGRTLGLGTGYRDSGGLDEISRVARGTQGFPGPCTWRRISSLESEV

Turning to `C[C@@H](O)[C@@H](C(N)=O)N1C[C@@]2(CCCN2S(C)(=O)=O)C1=O` [Compound BB, (2S,3R)-3-hydroxy-2-((S)-5-(methylsulfonyl)-1-oxo-2,5-diazaspiro[3,4]octan-2-yl)butanamide], in series [1], the “Microsomal Stability (% remaining at 60 min) Rat” value was 96%. For the same compound, the fraction unbound in series [2] is 0.789. Also, the “NR2A A (%) (activity)” value at NR2A (setting [3]) is on record as 0%. Further, the “NMDAR2A BINDING PROFILE % 1 mM Glycine” value at NR2A (relative to 1 mM glycine) is listed as 0%. Moreover, on NR2A (statement in description), the “binding to NR2A (in words)” value is listed as “substantially no binding”. Also, the “NMDAR2A BINDING PROFILE Conclusion” value at NR2A (wild-type NMDAR2A) is given as “WT2A no”. Besides, the “NR2B A (%) (activity)” value at NR2B (setting [3]) amounted to 76.3%. Besides, the “NMDAR2B BINDING PROFILE % 1 mM Glycine” value at NR2B (relative to 1 mM glycine) was determined as 76.3%. Besides, the “binding to NR2B (in words)” value at NR2B (statement in description) is “binds”. Moreover, on NR2B (wild-type NMDAR2B), the “NMDAR2B BINDING PROFILE Conclusion” value is recorded as “WT2B agonist”. Further, the “NR2C A (%) (activity)” value at NR2C (setting [3]) is reported as 0%. For the same compound, the “NMDAR2C BINDING PROFILE % 1 mM Glycine” value at NR2C (relative to 1 mM glycine) was determined as 0%. For the same compound, the “binding to NR2C (in words)” value on NR2C (statement in description) was “substantially no binding”. The “NMDAR2C BINDING PROFILE Conclusion” value on NR2C (wild-type NMDAR2C) was “WT2C no”. Moreover, in the series with SD rats, the “latency to eat in the novelty-induced hypophagia (NIH) test” value is reported as “produces an anxiolytic effect”. Besides, the “analgesic effects (paw withdrawal threshold)” value with Sprague Dawley rats is on record as “analgesic effects”.
